Measurements reported in paper PMC3688580, “Crystal Structure, SAXS and Kinetic Mechanism of Hyperthermophilic ADP-Dependent Glucokinase from Thermococcus litoralis Reveal a Conserved Mechanism for Catalysis” (PLoS ONE, 2013).
pKi: −log10 of the molar value.

Legend:
[1] = target: T1, TlGK (ADP-dependent glucokinase from Thermococcus litoralis) (Thermococcus litoralis, UniProt Q7M537); experiment: isothermal titration calorimetry (data not shown); also SAXS; assay type: binding; settings: absence of D-glucose; active site; MgADP
T1 construct: gene glkA; recombinant, purified from LB culture as in Merino et al. (heat shock, ammonium sulfate, two chromatographic steps); two-domain enzyme
T1 sequence (Q7M537 whole entry): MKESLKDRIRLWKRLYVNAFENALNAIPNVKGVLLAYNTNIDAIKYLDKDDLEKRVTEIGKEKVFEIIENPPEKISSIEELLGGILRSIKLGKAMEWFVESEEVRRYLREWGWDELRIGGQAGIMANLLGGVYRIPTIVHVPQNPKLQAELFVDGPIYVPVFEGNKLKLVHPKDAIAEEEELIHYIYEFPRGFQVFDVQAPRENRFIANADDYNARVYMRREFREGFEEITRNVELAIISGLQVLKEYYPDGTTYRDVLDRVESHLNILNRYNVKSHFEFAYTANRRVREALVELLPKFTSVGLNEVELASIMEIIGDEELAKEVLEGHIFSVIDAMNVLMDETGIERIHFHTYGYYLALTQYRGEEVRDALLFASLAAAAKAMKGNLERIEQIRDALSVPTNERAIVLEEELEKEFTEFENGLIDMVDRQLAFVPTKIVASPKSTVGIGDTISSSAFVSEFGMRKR

[2] = target: T1, TlGK (ADP-dependent glucokinase from Thermococcus litoralis); experiment: X-ray crystal structure […] Å; SAXS; assay type: binding
[3] = target: T1, TlGK (ADP-dependent glucokinase from Thermococcus litoralis); experiment: product inhibition, G6PDH-coupled assay; assay type: biochemical; settings: competitive vs Mg·ADP, mixed vs D-glucose; Mg·AMP; pH 7.8; 40 °C
[4] = target: T1, TlGK (ADP-dependent glucokinase from Thermococcus litoralis); experiment: product inhibition, discontinuous pyruvate kinase / lactate dehydrogenase assay; assay type: biochemical; settings: mixed type vs Mg·ADP and vs D-glucose; read-out: inhibition constants

Nc1ncnc2c1ncn2[C@@H]1O[C@H](COP(=O)(O)OP(=O)(O)O)[C@@H](O)[C@H]1O [Mg·ADP] was tested, and the dissociation constant [1] was “isothermal titration calorimetry experiments demonstrated binding of MgADP to the enzyme”.
In the case of Nc1ncnc2c1ncn2[C@@H]1O[C@H](COP(=O)(O)OP(=O)(O)S)[C@@H](O)[C@H]1O (some centres unmarked) [ADPβS], the “X-ray crystal structure 2.58 Å; SAXS” value ([2]; nonhydrolyzable ADP analog with D-glucose and Mg, beta-phosphate lacked density, modelled as AMP) was 4B8S (TlGK·Mg·ADPβS·D-glucose).
In the case of Nc1ncnc2c1ncn2[C@@H]1O[C@H](COP(=O)(O)O)[C@@H](O)[C@H]1O [Mg·AMP], the inhibition constants [3] was “Mg·AMP behaves as a competitive inhibitor of Mg·ADP”.
In the case of OC[C@H]1OC(O)[C@H](O)[C@@H](O)[C@@H]1O (stereo partly drawn) [D-glucose], the “X-ray crystal structure 2.58 Å; SAXS” value ([2]; ternary complex with Mg·ADPβS, active site) was 4B8S (TlGK·Mg·ADPβS·D-glucose).
For O=P(O)(O)OC[C@H]1OC(O)[C@H](O)[C@@H](O)[C@@H]1O (stereo partly drawn) [D-glucose-6-P], the pKi [4] was 3.11.
